Among the data in patent US9204653B2, “5-fluoro pyrimidine derivatives” (DOW AGROSCIENCES LLC, priority 2008, dated 2015) are pest or weed control values, retold here.

Read-outs that look alike come from different tables or passages of the source.

For the test, the system named is Mycosphaerella graminicola; Anamorph: Septoria tritici; Bayer Code SEPTTR. Put plainly: Leaf blotch of wheat, foliar fungicide treatment, one day protectant (1DP) or three day curative (3DC). Conditions: Zymoseptoria tritici, rating of percent disease control. It counts as in vivo, Septoria tritici on wheat plants (variety Yuma).
The mark [1] stands for this setting: 24 h, one day protectant (1DP), read-out: SETTTR 1DP 25 ppm.
Setting [2] is: 24 h, one day protectant (1DP), read-out: SEPTTR 1DP 100 ppm.
Where [3] appears, read: 72 h, three day curative (3DC), read-out: SEPTTR 3DC 25 ppm.
Where [4] appears, read: 72 h, three day curative (3DC), read-out: SEPTTR 3DC 100 ppm.

On to `ON(Cc1ccccc1)c1nc(OCc2ccc(F)cc2)ncc1F` [Compound 235], for which the pest or weed control at 25 ppm was in the range of 76 to 100% under setting [1] and 51 to 75% under setting [3]. Also, the pest or weed control at 100 ppm reads like this: under setting [2], 76 to 100%; under setting [4], 76 to 100%.

As for `CNc1nc(OCc2cccs2)ncc1F` [Compound 237], the pest or weed control at 25 ppm under setting [1] fell in the range of 0 to 25% and the pest or weed control at 25 ppm under setting [3] fell in the range of 0 to 25%. For the same compound, the pest or weed control at 100 ppm by setting is: under setting [2], 0 to 25%; under setting [4], 0 to 25%.

Consider `CCC(Nc1nc(OCc2ccc(F)cc2)ncc1F)Nc1nc(OCc2ccc(F)cc2)ncc1F` [Compound 238], for which the pest or weed control at 25 ppm is, setting by setting: under setting [1], 0 to 25%; under setting [3], 0 to 25%. For the same compound, the pest or weed control at 100 ppm was in the range of 51 to 75% under setting [2] and 26 to 50% under setting [4].

Turning to `COc1ccccc1COc1ncc(F)c(NC(=S)Nc2ccccc2F)n1` [Compound 239], the pest or weed control at 25 ppm is 76 to 100% under setting [1] and 51 to 75% under setting [3]. Besides, the pest or weed control at 100 ppm is 76 to 100% under setting [2] and 76 to 100% under setting [4].

With `Nc1nc(OCCc2ccccc2Cl)ncc1F` [Compound 240], the pest or weed control at 25 ppm under setting [1] lay in the range of 0 to 25% and the pest or weed control at 25 ppm under setting [3] fell in the range of 0 to 25%. Moreover, the pest or weed control at 100 ppm runs as follows: under setting [2], 26 to 50%; under setting [4], 0 to 25%.

As for `COc1ccc(COc2ncc(F)c(/N=C/N3CCOCC3)n2)cc1F` [Compound 241], the pest or weed control at 25 ppm under setting [1] lay in the range of 76 to 100% and the pest or weed control at 25 ppm under setting [3] was 76 to 100%. The pest or weed control at 100 ppm by setting is: under setting [2], 76 to 100%; under setting [4], 51 to 75%.

`Cc1ccc(COc2ncc(F)c(NNC3CCCCC3)n2)cc1` [Compound 244]: the pest or weed control at 25 ppm lay within 0 to 25% under setting [1] and 0 to 25% under setting [3]. For the same compound, the pest or weed control at 100 ppm under setting [2] was 76 to 100% and the pest or weed control at 100 ppm under setting [4] is 76 to 100%.

For `Cn1ccc(COc2ncc(F)c(NCO)n2)n1` [Compound 245], the pest or weed control at 25 ppm reads like this: under setting [1], 51 to 75%; under setting [3], 51 to 75%. Also, the pest or weed control at 100 ppm lay within 76 to 100% under setting [2] and 76 to 100% under setting [4].

As to `Cc1cc(Cl)ccc1Oc1ncc(F)c(N)n1` [Compound 246], under setting [1], the pest or weed control at 25 ppm fell in the range of 0 to 25%. Moreover, the pest or weed control at 100 ppm under setting [2] is 0 to 25%.

Regarding `CN(C)/C=N/c1nc(OC(=O)C2CCCCC2)ncc1F` [Compound 247], the pest or weed control at 25 ppm is 76 to 100% under setting [1] and 76 to 100% under setting [3]. For the same compound, the pest or weed control at 100 ppm lay within 76 to 100% under setting [2] and 76 to 100% under setting [4].

Turning to `COc1ccc(COc2ncc(F)c(NCc3ccccc3F)n2)cc1` [Compound 249], the pest or weed control at 25 ppm under setting [1] was 26 to 50% and the pest or weed control at 25 ppm under setting [3] was 26 to 50%. For the same compound, the pest or weed control at 100 ppm under setting [2] lay in the range of 76 to 100% and the pest or weed control at 100 ppm under setting [4] was in the range of 51 to 75%.

For the compound `CN(C)/C=N/c1nc(Cl)ncc1F` [Compound 252], the pest or weed control at 25 ppm runs as follows: under setting [1], 26 to 50%; under setting [3], 0 to 25%. In addition, the pest or weed control at 100 ppm under setting [2] is 26 to 50% and the pest or weed control at 100 ppm under setting [4] was in the range of 0 to 25%.

With `Cc1ccc(COc2ncc(F)c(N(C)N)n2)cc1` [Compound 253], the pest or weed control at 25 ppm was 26 to 50% under setting [1] and 51 to 75% under setting [3]. In addition, the pest or weed control at 100 ppm runs as follows: under setting [2], 76 to 100%; under setting [4], 76 to 100%.

Turning to `C=C(C)COc1ncc(F)c(N)n1` [Compound 256], the pest or weed control at 25 ppm runs as follows: under setting [1], 0 to 25%; under setting [3], 0 to 25%. Moreover, the pest or weed control at 100 ppm is 0 to 25% under setting [2] and 26 to 50% under setting [4].

Consider `CCOCNc1nc(OCc2ccc(F)cc2)ncc1F` [Compound 257], for which the pest or weed control at 25 ppm fell in the range of 51 to 75% under setting [1] and 51 to 75% under setting [3]. For the same compound, the pest or weed control at 100 ppm under setting [2] fell in the range of 76 to 100% and the pest or weed control at 100 ppm under setting [4] lay in the range of 76 to 100%.

In the case of `NNc1nc(OCc2ccccc2)ncc1F` [Compound 258], the pest or weed control at 25 ppm reads like this: under setting [1], 51 to 75%; under setting [3], 26 to 50%. The pest or weed control at 100 ppm under setting [2] lay in the range of 76 to 100% and the pest or weed control at 100 ppm under setting [4] was in the range of 51 to 75%.

As to `CC(=O)OCNc1nc(OCc2ccc(F)cc2)ncc1F` [Compound 259], the pest or weed control at 25 ppm lay in the range of 51 to 75% under setting [1] and 76 to 100% under setting [3]. Further, the pest or weed control at 100 ppm under setting [2] lay within 76 to 100% and the pest or weed control at 100 ppm under setting [4] was 76 to 100%.

For the compound `CN1CCCC/C1=N\c1nc(OCc2cccc(C#N)c2)ncc1F` [Compound 261], the pest or weed control at 25 ppm by setting is: under setting [1], 51 to 75%; under setting [3], 51 to 75%. Moreover, the pest or weed control at 100 ppm under setting [2] lay in the range of 76 to 100% and the pest or weed control at 100 ppm under setting [4] was 76 to 100%.

Consider `O=C(Nc1nc(OCc2ccc(F)cc2)ncc1F)OCCl` [Compound 262], for which the pest or weed control at 25 ppm was 51 to 75% under setting [1] and 76 to 100% under setting [3]. Further, the pest or weed control at 100 ppm lay in the range of 76 to 100% under setting [2] and 76 to 100% under setting [4].

On to `COc1ccc(S(=O)(=O)Oc2ncc(F)c(/N=C/N(C)C)n2)cc1` [Compound 264], for which the pest or weed control at 25 ppm reads like this: under setting [1], 51 to 75%; under setting [3], 76 to 100%. For the same compound, the pest or weed control at 100 ppm fell in the range of 76 to 100% under setting [2] and 76 to 100% under setting [4].

On to `Fc1cccc(COc2ncc(F)c(NC(=S)Nc3ccccc3F)n2)c1` [Compound 266], for which the pest or weed control at 25 ppm was 76 to 100% under setting [1] and 0 to 25% under setting [3]. Also, the pest or weed control at 100 ppm was in the range of 76 to 100% under setting [2] and 76 to 100% under setting [4].

As to `CC(C)Oc1ncc(F)c(N)n1` [Compound 267], the pest or weed control at 25 ppm is, setting by setting: under setting [1], 0 to 25%; under setting [3], 0 to 25%. The pest or weed control at 100 ppm is 0 to 25% under setting [2] and 0 to 25% under setting [4].

With `COc1cccc(COc2ncc(F)c(OC)n2)c1` [Compound 269], the pest or weed control at 25 ppm is, setting by setting: under setting [1], 0 to 25%; under setting [3], 0 to 25%. Also, the pest or weed control at 100 ppm reads like this: under setting [2], 0 to 25%; under setting [4], 0 to 25%.

As for `COCCOC(=O)Nc1nc(OCc2cccc(F)c2)ncc1F` [Compound 273], the pest or weed control at 25 ppm was 51 to 75% under setting [1] and 76 to 100% under setting [3]. Further, the pest or weed control at 100 ppm runs as follows: under setting [2], 76 to 100%; under setting [4], 76 to 100%.

Regarding `CN1CCC/C1=N\c1nc(OCc2ccc(F)cc2)ncc1F` [Compound 274], the pest or weed control at 25 ppm is, setting by setting: under setting [1], 76 to 100%; under setting [3], 76 to 100%. In addition, the pest or weed control at 100 ppm runs as follows: under setting [2], 76 to 100%; under setting [4], 76 to 100%.

For the compound `Nc1nc(OCc2cscn2)ncc1F` [Compound 275], the pest or weed control at 25 ppm was 76 to 100% under setting [1] and 76 to 100% under setting [3]. Also, the pest or weed control at 100 ppm under setting [2] lay in the range of 76 to 100% and the pest or weed control at 100 ppm under setting [4] is 76 to 100%.

Regarding `CCOC(=O)Nc1nc(OCc2cccc(OC)c2)ncc1F` [Compound 276], the pest or weed control at 25 ppm was in the range of 76 to 100% under setting [1] and 76 to 100% under setting [3]. The pest or weed control at 100 ppm is, setting by setting: under setting [2], 76 to 100%; under setting [4], 76 to 100%.

With `CC[Si](CC)(CC)Nc1nc(OCCCOC)ncc1F` [Compound 279], the pest or weed control at 25 ppm is, setting by setting: under setting [1], 51 to 75%; under setting [3], 76 to 100%. Further, the pest or weed control at 100 ppm reads like this: under setting [2], 76 to 100%; under setting [4], 76 to 100%.
